Non-standard residues stand in square brackets, D forms with d. Residues, ends and D or L forms follow the SMILES beside them.
Legend:
[1] = In vivo safety after intraperitoneal injection; set-up: species or system rat
Description: For in vivo safety, rats receiving an intraperitoneal injection of DPMD were monitored for systemic toxicity and immune response. […] The heart and spleen likewise appeared normal, with no myocardial inflammation or splenic white pulp enlargement (Figure 5G,H). […] We acknowledge that longer‐term studies will be needed, but these initial results support the biosafety of DPMD as a therapeutic agent.
Figure 5 The favorable biosafety and biocompatibility of DPMD. A) The schematic diagram of therapeutic safety benefited from the DPMD. B&C) The blood corpuscle counting and immunotoxicity‐related blood biochemical indexes of rats treated with the DPMD or PBS using intraperitoneal administration. D) Hepatotoxicity measured by pathological section of liver, ALT (glutamic‐pyruvic transaminase), AST (glutamic‐oxalacetic transaminase), total bilirubin (TBIL) and inflammatory cytokines (IL‐6, TNF‐α, MCP‐1and NF‐κB) of liver. E) Nephrotoxicity test, including pathological section of kidney, CR (creatinine), BUN (Blood Urea Nitrogen), albumin (ALB) and inflammatory cytokines (IL‐6, TNF‐α, MCP‐1and NF‐κB) of kidney. […] G) Cardiotoxicity reflected by pathological section and inflammatory cytokines (IL‐6, TNF‐α, MCP‐1and NF‐κB) infiltrating in heart. H) The H&E staining of spleen sections, and IL‐6, TNF‐α, MCP‐1and NF‐κB cytokines were involved in safety detection of DPMD or PBS in spleen. The data from each group were presented as the mean ± SD. Scale bar: 100 µm. Statistical analysis in B‐G was performed using unpaired t‐test.

[2] = system: postoperative pancreatic fistula (POPF); test: Rat pancreatic common duct transection (lethal) POPF model; format: in vivo
Procedure: In order to challenge the efficacy of DPMD in emergency treatments for POPF, a lethal rat model of POPF was established through transection of the main pancreatic duct. After 8 h post‐surgical modeling, evidence of severe POPF was observed through the presence of leaky Chymotrypsin (Figure S11, Supporting Information). At this critical juncture, DPMD, LPMD or an equal volume normal saline solution were administered via syringe injection into the abdominal cavity near the pancreas. […] Consequently, all […] rats subjected to the mock treatment succumbed to three days post‐surgical modeling, while LPMD only extended the median survival from 2 days in Ctrl to 3 days in LPMD (Figure 4D). […] Furthermore, both DPMD and LPMD treatments decreased inflammation markers including TNF‐α, IL‐6, IL‐8, IL‐33 sST2, CRP, HMGB1, MPO, PAF, PCT, PGE2 and SAA present in rat serum (Figure 4G).
Without damaging the surrounding pancreatic tissue and capillaries, a transverse incision on the pancreatic splenic duct was performed using micro-scissors. Successful modelling is confirmed by observing external leakage of pancreatic fluid. Place a self-made drainage tube into the rat's abdominal cavity with its outlet positioned at the site of the transected splenic duct, then exit through the abdominal wall and fix it there.
3.14 Construction of rat pancreatic common duct transection model
Animal studies were performed according to the protocols approved by the Institution Guidelines and were approved by the Laboratory Animal Center of Xijing Hospital of The Fourth Military Medical University (No. IACUC-20220308). ALL rats were purchased from the Laboratory Animal Center of The Fourth Military Medical University. The rats were housed under standard specific pathogen-free conditions with a 12h–12h light–dark cycle.
The preoperative preparation and postoperative care for the rat model were consistent with those of the rat pancreatic splenic duct transection pancreatic fistula model, except for the transecting of the pancreatic common duct of the pancreas in modeling. A custom-made drainage tube outlet was positioned around the area where the pancreatic common duct was transected.
3.15 Evaluation of the effect of DPMD on pancreatic duct transection model The male SD rats were randomly assigned to six rats in each group. Prepare a pancreatic duct transection model with a pancreatic fistula and apply 0.3 mL of normal saline, 0.3 ml of DPMD, and 0.3 mL of LPMD at the incision site. After 3days, administer 3 mL of MeO-Succ-Arg-Pro-Tyr-AMO solution (ATT Bioquest) to the pancreatic stump and surrounding tissues for fluorescence imaging in real-time under dark field conditions while using an API filter. Blood and ascitic fluid

[3] = intraperitoneal injection, 7 days post-treatment

CC[C@@H](C)[C@@H](NC(=O)[C@@H](CCC(N)=O)NC(=O)[C@H](NC(=O)[C@@H](Cc1ccc(O)cc1)NC(=O)CNC(=O)[C@@H](CC(C)C)NC(=O)[C@H](NC(=O)[C@@H](CO)NC(=O)CNC(=O)[C@@H](C)NC(=O)[C@@H](CC(=O)O)NC(=O)[C@@H](C)NC(=O)[C@@H](CCCNC(=N)N)NC(=O)[C@@H](C)NC(=O)[C@@H](CC(=O)O)NC(=O)[C@@H](C)NC(=O)[C@@H](CCCNC(=N)N)NC(=O)[C@@H](C)NC(=O)[C@@H](CC(=O)O)NC(=O)[C@@H](C)NC(=O)[C@@H](CCCNC(=N)N)NC(=O)[C@@H](C)NC(=O)[C@@H](CC(=O)O)NC(=O)[C@@H](C)NC(=O)[C@H](N)CCCNC(=N)N)C(C)C)[C@H](C)CC)C(=O)N[C@H](CCCNC(=N)N)C(=O)O [DPMD, Ac‐(D‐RADA)4‐CONH2] (H-[dR][dA][dD][dA][dR][dA][dD][dA][dR][dA][dD][dA][dR][dA][dD][dA]G[dS][dV][dL]G[dY][dI][dQ][dI][dR]-OH; N-terminus and C-terminus assumed)
blood cell counts (red and white cells, platelets) [1, 3]: remained within normal limits | liver function tests (ALT, AST, total bilirubin) and kidney function markers (creatinine, BUN, albumin) [1, 3]: no signs of organ damage or dysfunction | serum pro-inflammatory cytokine levels (IL-6, TNF-α, MCP-1, NF-κB) [1, 3]: indistinguishable from saline‐treated controls | histopathological examination of major organs ([1]; liver, kidney, lung, heart, spleen, H&E): no microscopic evidence of toxicity | chymotrypsin leakage by fluorescence imaging ([2]; 3 day after treatment, laparotomy, Figure 4B): halted the leakage almost entirely | ascitic and serum amylase and lipase levels ([2]; compared to mock treatment, Figure 4C): statistically significant reduction | deaths during the seven-day observation period ([2]; injection into abdominal cavity 8 h after modeling, all eight mock-treated rats died within three days): none of the rats treated with DPMD died | H&E staining of pancreatic tissue ([2]; three days after surgery, Figure 4E): reduced edema and inflammatory cell infiltration | serum inflammation markers (TNF-α, IL-6, IL-8, IL-33, sST2, CRP, HMGB1, MPO, PAF, PCT, PGE2, SAA) ([2]; within 7 days after surgery, Figure 4G): decreased
